This passage reports IC50 and activity results from patent publication US6245817A, “NPY5 receptor antagonists and methods for using same” (Bayer Corporation, priority 1999, dated 2001).

Assay [1] deals with T1, Human NPY5 Receptor (Homo sapiens, UniProt Q15761).
T1 sequence (Q15761 1-445): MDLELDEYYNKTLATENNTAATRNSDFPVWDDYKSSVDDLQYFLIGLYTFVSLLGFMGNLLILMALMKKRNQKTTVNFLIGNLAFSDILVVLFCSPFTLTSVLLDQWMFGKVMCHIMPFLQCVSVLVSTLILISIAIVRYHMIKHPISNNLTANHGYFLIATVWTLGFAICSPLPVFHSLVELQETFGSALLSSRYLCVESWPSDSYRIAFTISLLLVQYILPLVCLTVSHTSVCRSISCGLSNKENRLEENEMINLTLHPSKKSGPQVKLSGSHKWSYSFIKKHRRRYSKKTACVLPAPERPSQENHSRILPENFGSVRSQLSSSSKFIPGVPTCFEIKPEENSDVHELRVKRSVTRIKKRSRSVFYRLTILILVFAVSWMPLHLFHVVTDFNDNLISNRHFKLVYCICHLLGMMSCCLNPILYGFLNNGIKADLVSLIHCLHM
The assay can be described thus: Human NPY5 Receptor Binding Assay. Particulars: [125I]PYY; read-out: hNPY5 IC50.

The target of assay [2] is T2, Human NPY1 Receptor (Homo sapiens, UniProt P25929).
T2 sequence (P25929 1-384): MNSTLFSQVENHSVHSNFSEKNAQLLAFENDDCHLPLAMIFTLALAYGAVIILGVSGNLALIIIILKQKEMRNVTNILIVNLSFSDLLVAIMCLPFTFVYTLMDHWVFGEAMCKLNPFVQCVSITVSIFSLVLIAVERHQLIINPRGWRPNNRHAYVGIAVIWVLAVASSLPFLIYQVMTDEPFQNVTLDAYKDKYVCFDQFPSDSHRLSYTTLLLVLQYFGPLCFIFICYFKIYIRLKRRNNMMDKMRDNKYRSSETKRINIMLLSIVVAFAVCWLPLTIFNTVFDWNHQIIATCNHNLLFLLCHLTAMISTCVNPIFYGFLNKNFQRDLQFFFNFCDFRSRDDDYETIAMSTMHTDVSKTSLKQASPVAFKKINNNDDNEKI
The assay can be described thus: Human NPY1 Receptor Binding Assay. Particulars: SK-N-MC cells, [125I]PYY; read-out: hNPY1 IC50.

Assay [3] has as its target Human NPY4/PP1 receptor (Homo sapiens, UniProt P50391). The assay can be described thus: Human NPY4/PP1 Receptor Binding Assay. Conditions: [125I]human PP; read-out: hNPY4 IC50.
Assay [4] concerns the target T3, Human NPY2 receptor (Homo sapiens, UniProt P49146).
T3 sequence (P49146 1-381): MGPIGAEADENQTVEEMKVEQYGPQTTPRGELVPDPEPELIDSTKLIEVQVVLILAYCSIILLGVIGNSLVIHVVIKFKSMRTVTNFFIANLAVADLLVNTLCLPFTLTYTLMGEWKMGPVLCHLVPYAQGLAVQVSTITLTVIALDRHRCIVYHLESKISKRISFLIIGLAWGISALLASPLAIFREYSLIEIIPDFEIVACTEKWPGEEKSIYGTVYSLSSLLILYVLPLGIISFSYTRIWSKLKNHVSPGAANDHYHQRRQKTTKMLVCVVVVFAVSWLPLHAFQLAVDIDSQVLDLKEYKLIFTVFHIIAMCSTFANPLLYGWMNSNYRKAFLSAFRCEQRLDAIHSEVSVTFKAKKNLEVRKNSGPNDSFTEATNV
The assay can be described thus: Human NPY2 Receptor Binding Assay. Conditions: [125I]PYY; read-out: hPPY2 IC50.

Assay [5] concerns the target T4, Rat NPY5 Receptor (Rattus norvegicus, UniProt Q63634).
T4 sequence (Q63634 1-445): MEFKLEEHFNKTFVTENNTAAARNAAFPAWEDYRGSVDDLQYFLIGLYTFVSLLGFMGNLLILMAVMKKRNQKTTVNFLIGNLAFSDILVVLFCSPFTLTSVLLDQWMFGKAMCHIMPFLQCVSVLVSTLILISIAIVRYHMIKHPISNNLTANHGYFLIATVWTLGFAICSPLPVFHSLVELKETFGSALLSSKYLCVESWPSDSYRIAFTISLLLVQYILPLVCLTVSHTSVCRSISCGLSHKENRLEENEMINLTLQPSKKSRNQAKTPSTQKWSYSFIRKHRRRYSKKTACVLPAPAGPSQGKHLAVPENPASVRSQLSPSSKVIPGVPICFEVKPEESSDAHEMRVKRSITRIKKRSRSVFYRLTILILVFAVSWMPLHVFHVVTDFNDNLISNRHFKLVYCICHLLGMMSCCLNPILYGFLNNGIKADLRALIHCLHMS
The assay can be described thus: Rat NYP5 Cyclase Assay (In Vitro Functional Assay). Particulars: 20 min, percentage of forskolin-stimulated adenylate cyclase, read-out: rNPY5 % FSAC (10 μM). In kind it is cell-based. The method, then: D. Rat NYP5 Cyclase Assay (In Vitro Functional Assay)
Cells stably expressing the rat NPY5 receptor are resuspended in serum-free DMEM containing 10 mM HEPES (pH 7.4) and 1 mM isobutylmethylxanthine (IBMX). 1 μM forskolin and drug dilution are then added to the cells. After a 20 minute incubation of the samples at 37° C., the assay is stopped by placing the samples in boiling water for 3 minutes. The cAMP produced in each sample is quantitated with a radioimmunoassay kit (NEN Dupont). Data are expressed as a percentage of forskolin-stimulated adenylate cyclase.

In assay [6] the target is T4, Rat NPY5 Receptor. In words: Rat NPY5 Receptor Binding Assay. Particulars: [125I]PYY; read-out: rNPY5 IC50.

Where a name gives a salt, the structure may show the parent alone.

Chain of Human NPY4/PP1 receptor (P50391 whole entry): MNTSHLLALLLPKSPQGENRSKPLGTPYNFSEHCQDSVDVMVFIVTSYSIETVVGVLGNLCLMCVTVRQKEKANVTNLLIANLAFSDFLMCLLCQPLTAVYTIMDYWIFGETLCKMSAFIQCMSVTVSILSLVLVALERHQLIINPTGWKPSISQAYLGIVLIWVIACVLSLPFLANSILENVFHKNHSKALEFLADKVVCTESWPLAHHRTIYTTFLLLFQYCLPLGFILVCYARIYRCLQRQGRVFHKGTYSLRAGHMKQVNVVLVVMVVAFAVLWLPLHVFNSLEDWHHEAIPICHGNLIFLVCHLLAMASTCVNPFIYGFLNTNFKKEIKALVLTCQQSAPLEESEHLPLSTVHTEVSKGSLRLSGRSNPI

As a reminder, the IC50 is the concentration that inhibits the measured activity by half. As to `Cn1ccnc1SCC(=O)Nc1ccc(C2CCCCC2)cc1` [Compound 3, N-(4-Cyclohexyl-phenyl)-2-(1-methyl-1H-imidazol-2-ylsulfanyl)-acetamide Hydrochloride], the IC50 in assay [1] is 0.16 µM; in assay [2], more than 5 µM; in assay [3] it was more than 5 µM; in assay [4] it was more than 5 µM; in assay [6], 0.12 µM. Besides, the activity at 10 µM in assay [5] turned out to be 103%.

On to `Cn1nnnc1SCC(=O)Nc1ccc(C2CCCCC2)cc1` [Compound 8, N-(4-Cyclohexyl-phenyl)-2-(1-methyl-1H-tetrazol-5-ylsulfanyl)-acetamide], for which the IC50 in assay [1] is 0.16 µM; in assay [2], more than 5 µM; in assay [3], more than 5 µM; in assay [4], more than 5 µM; in assay [6], 0.029 µM. Moreover, in assay [5], the activity at 10 µM came out at 99%.

With `Cn1ccnc1SCC(=O)Nc1ccc(C(C)(C)C)cc1` [Compound 143, N-(4-tert-Butyl-phenyl)-2-(1-methyl-1H-imidazol-2-ylsulfanyl)-acetamide, reference compound], the IC50 in assay [1] is 3.1 µM; in assay [2], more than 5 µM; in assay [3], more than 5 µM; in assay [4], more than 5 µM; in assay [6], 3.9 µM.

For `O=C(CCC(Sc1ccccc1)C(=O)Nc1ccccc1)Nc1ccccc1` (centres unmarked) [Compound 7, 2-Phenylsulfanyl-pentanedioic acid bis-phenylamide], the half-inhibitory concentration (IC50) in assay [1] is 1.6 µM; in assay [2], more than 5 µM; in assay [3], more than 5 µM; in assay [4], more than 5 µM; in assay [6] it was 0.44 µM.

For the compound `CCOc1ccc(NC(=O)CSc2nccn2C)cc1` [Compound 156, N-(4-Ethoxy-phenyl)-2-(1-methyl-1H-imidazol-2-ylsulfanyl)-acetamide, reference compound], the IC50 in assay [1] was more than 10 µM; in assay [2] it was more than 5 µM; in assay [3], more than 5 µM; in assay [4] it was more than 5 µM; in assay [6] it was more than 10 µM.

For `Cn1ccnc1SCC(=O)Nc1ccc(Cl)cc1` [Compound 139, N-(4-Chloro-phenyl)-2-(1-methyl-1H-imidazoI-2-ylsulfanyl)-acetamide, reference compound], the IC50 in assay [1] was more than 10 µM; in assay [2] it was more than 5 µM; in assay [3], more than 5 µM; in assay [4], more than 5 µM; in assay [6] it was more than 10 µM.

Consider `Nc1nnc(SCC(=O)Nc2ccc(C3CCCCC3)cc2)s1` [Compound 51, 2-(-Amino-[1,3,4]thiadiazol-2-ylsulfanyl)-N-4-cydohexyl-phenyl-cetamide], for which the values for the IC50 in assay [1] and in assay [4] were 0.22 µM and more than 5 µM, respectively. Moreover, the activity at 10 µM in assay [5] worked out at 105%.

Regarding `Cn1ccnc1SCC(=O)Nc1ccc(I)cc1` [Compound 145, N-(4-Iodo-phenyl)-2-(1-methyl-1H-imidazol-2-ylsulfanyl)-acetamide, reference compound], the IC50 in assay [1] is more than 10 µM; in assay [2] it was more than 5 µM; in assay [3] it was more than 5 µM; in assay [4], more than 5 µM; in assay [6], more than 10 µM.

`Cc1cc(C)n2nc(SCC(=O)Nc3ccc(Cl)cc3)nc2n1` [Compound 137, reference compound]: the IC50 in assay [1] was more than 10 µM; in assay [2], more than 5 µM; in assay [3], more than 5 µM; in assay [4], more than 5 µM; in assay [6], more than 10 µM.

In the case of `O=C(CSC1=NCCN1)Nc1ccc(Cl)cc1` [Compound 187, N-(4-Chloro-phenyl)-2-(4,5-dihydro-1H-imidazol-2-ylsulfanyl)-acetamide, reference compound], the IC50 is more than 10 µM in assay [1]; more than 5 µM in assay [2]; more than 5 µM in assay [3]; more than 5 µM in assay [4]; more than 10 µM in assay [6].

Regarding `CC(C)c1ccc(NC(=O)CSc2n[nH]c(=O)n2-c2cccc(F)c2)cc1` [Compound 141, reference compound], the IC50 was 3 µM in assay [1]; more than 5 µM in assay [2]; more than 5 µM in assay [3]; more than 5 µM in assay [4]; 3 µM in assay [6].

With `O=C(CSc1n[nH]c(=O)n1-c1cccc(F)c1)Nc1ccc(Cl)cc1` [Compound 147, reference compound], the concentration for half-maximal inhibition (IC50) in assay [1] was more than 10 µM; in assay [2], more than 5 µM; in assay [3] it was more than 5 µM; in assay [4] it was more than 5 µM; in assay [6], more than 10 µM.

For `Cc1cc(-c2nnc(SCC(=O)Nc3ccc(C(F)(F)F)cc3)n2C)no1` [Compound 2, 2-[4-Methyl-5-(5-methyl-isoxazol-3-yl)-4H-[1,2,4]triazol-3-ylsultanyl]-N-(4-trifluoro-methyl-phenyl)-acetamide], the IC50 in assay [1] is more than 10 µM; in assay [2], more than 5 µM; in assay [3] it was more than 5 µM; in assay [4], more than 5 µM; in assay [6], more than 10 µM.

On to `O=C(CSc1ccccn1)Nc1ccc(C2CCCCC2)cc1` [Compound 182, N-(4-Cyclohexyl-phenyl)-2-(pyridin-2-ylsulfanyl)-acetamide, reference compound], for which the IC50 in assay [1] is 0.87 µM; in assay [2], more than 5 µM; in assay [3], more than 5 µM; in assay [4] it was more than 5 µM; in assay [6], 0.76 µM.

For the compound `Cc1ccccc1NC(=O)CCC(Oc1ccccc1)C(=O)Nc1ccccc1C` (centres unmarked) [Compound 6, 2-Phenoxy-pentanedioic acid bis-o-tolylamide], the IC50 in assay [1] was 0.16 µM; in assay [2] it was more than 5 µM; in assay [3], more than 5 µM; in assay [4], more than 5 µM; in assay [6] it was 0.18 µM.

For the compound `CC(C)c1ccc(NC(=O)CSc2nccn2C)cc1` [Compound 155, N-(4-Isopropyl-phenyl)-2-(1-methyl-1H-imidazol-2-ylsulfanyl)-acetamide, reference compound], the IC50 in assay [1] was more than 10 µM; in assay [2], more than 5 µM; in assay [3], more than 5 µM; in assay [4] it was more than 5 µM; in assay [6], more than 10 µM.
